Measurements: patent publication US20070212786A1, “Monitoring heparin by microelectronic devices” (priority 2005, published 2007)

Biological target: T1, AT-III (Homo sapiens, UniProt P01008)
T1 construct: purchased Bayer Corp
Test: AT-III field-effect sensor binding (differential surface potential dose-response)
Details: covalently immobilized biotinylated AT-III on the active sensor, BSA-passivated control sensor, dose-response curve FIG. 4B
Excerpt: In one embodiment, AT-III is used as a covalently immobilized surface receptor. In this embodiment, the present invention can monitor active heparin. FIG. 4A illustrates the surface immobilization chemistry according to this embodiment. The surface immobilization chemistry involves aldehyde-terminated silanization of the SiO2 surface, followed by the reductive amination of the aldehyde groups to the surface-exposed amino groups of avidin, blocking the unreacted sites by ethanolamine, and attachment of covalently-immobilized avidin to biotinylated AT-III. […] Upon deblocking, the resulting bAT-III remains fully active because the heparin-binding site remains intact and unhindered because the introduced biotin groups are positioned away from it. This immobilization strategy ensures full activity and the desired surface orientation of AT-III for maximizing the sensor performance. […] The selectivity of the AT-III sensor to heparin sequence was measured by examining the binding affinity to chondroitin sulfate, a negatively charged polysaccharide structurally related to heparin. […]
The surface potential of the filed sensitive region was determined by applying an AC signal (50 mV sine wave at 4 kHz) to the reference electrode and measuring the resulting current through the EIS structure with a current preamp (Keithley Model 428) and lock-in amplifier. […]

T1 sequence (P01008 33-464): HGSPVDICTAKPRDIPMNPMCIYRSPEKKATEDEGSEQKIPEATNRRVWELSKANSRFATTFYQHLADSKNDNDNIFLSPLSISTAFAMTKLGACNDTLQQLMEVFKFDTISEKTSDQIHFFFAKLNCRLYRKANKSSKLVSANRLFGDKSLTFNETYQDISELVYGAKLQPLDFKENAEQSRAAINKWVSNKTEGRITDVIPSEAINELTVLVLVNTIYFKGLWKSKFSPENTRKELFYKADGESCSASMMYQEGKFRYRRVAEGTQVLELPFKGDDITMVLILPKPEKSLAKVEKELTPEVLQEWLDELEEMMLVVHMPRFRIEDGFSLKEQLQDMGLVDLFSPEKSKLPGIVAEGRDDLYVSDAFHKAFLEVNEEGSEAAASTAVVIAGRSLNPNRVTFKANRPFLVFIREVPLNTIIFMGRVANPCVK

response of the AT-III sensor (binding affinity, selectivity versus heparin): neglible
Substance: chondroitin sulfate
